As usually defined, the Km is the substrate concentration at which the rate is half of its maximum. As usually defined, the kcat is the number of substrate molecules converted per active site and unit of time at saturation.

This is an account of results in publication PMC9061857, “A fluorogenic probe for granzyme B enables in-biopsy evaluation and screening of response to anticancer immunotherapies” (Nature Communications, 2022).

*1 amine or outer side, *2 acyl side, *3 side chain or, on linkers, in order; H or OH if unused. Primed or numbered codes have the meaning given here. The star is where a group is joined. BODIPY(FL) = CC1=CC(C)=[N+]2C1=Cc1ccc(CCC(=O)*)n1[B-]2(F)F; Ethylenediamine = C(CN[*:2])N[*:1]; AMC = Cc1cc(=O)oc2cc(N*)ccc12; Dabcyl′ = quencher

Assay [1] deals with hGzmB. The experiment in a line: Limit of detection of hGzmB by probe fluorescence. Format: biochemical, human. Particulars: limit of detection of hGzmB (Fig. S1). The protocol: (§1) Supplementary Figure 1. Reactivity of fluorogenic substrates against human GzmB and limits of detection. a) Reaction conversion rates (by HPLC-UV detection at 350 nm) for Ac-IEPD-AMC (50 μM) in TRIS buffer (see Methods) at 37 °C containing different concentrations of hGzmB. Data presented as mean values±SEM (n=3 independent biological experiments). b) Reaction conversion rates (by HPLC-UV detection at 500 nm) for the tetrapeptide T1 (25 μM) in TRIS buffer at 37 °C containing different concentrations of hGzmB. Data presented as mean values±SEM (3 independent biological experiments).
(§2) Source data provided as a Source Data file.
(§3) (1 picture or pasted object on this page, not shown here)
Supplementary Figure 4. Comparative enzyme selectivity and limit of detection for […]
Ac-IEPD-AMC (all at 25 μM) after incubation for 90 min at 37 °C with hGzmB (light gray bars), human caspase-3 (dark gray bars) and hGzmA (white bars) (all enzymes used at 20 nM). Data presented as mean values±SEM (n=3). Excitation wavelengths: 450 nm (for […]
450 nm (for Ac-IEPD-AMC). b) Limit of detection of hGzmB by fluorescence emission […]
presented as mean values±SD (2 independent experiments with 3 technical replicates).

Assay [2] deals with T1, human GzmB (hGzmB) (Homo sapiens, UniProt P10144).
T1 construct: For active GzmB vs pro-GzmB, p < 0.0001
The experiment in a line: HPLC conversion of fluorogenic peptides by hGzmB. Format: biochemical. Conditions: TRIS buffer, 37 °C. As to the method:
as §1, §2, §3
Supplementary Table 1. Chemical structures and reactivity of FRET-based tetrapeptides against human GzmB.
Code Structure Linker Quencher HPLC conversion HPLC conversion […]
Supplementary Table 2. Sequences and reactivity of FRET-based hexapeptides against […]
Code Peptide sequence HPLC conversion
H1 Ile-Glu-Pro-Asp-Ala-Gly 75%
H2 Ile-Glu-Pro-Asp-Ser-Gly 80%
H3 Ile-Glu-Pro-Asp-Ser-Leu 80%
H4 Ile-Glu-Pro-Asp-Trp-Leu 82%
H6 Ile-Glu-Pro-Asp-Trp-Arg 40%
H7 Ile-Glu-Pro-Asp-Arg-Leu 60%
H5m Ile-Glu-Phe-Asp-Ala-Leu 70%

Assay [3] has as its system GzmB. Particulars: 4-mer, fluorogenic dye; ref [39]; cited from earlier work. From the text: Table 1 Summary of fluorescent peptide-based probes for GzmB. | column: Kcat (s^−1); KM (µM); Kcat/KM (M^−1 s^−1)
The target in assay [4] is human granzyme B (human) (UniProt P10144).
Assay [5] has the same target. This is another data set of the same source.
Assay [6] shares this target. The source holds these as a separate data set.
The target is the same in assay [7]. This is another data set of the same source.
The mark [8] stands for this setting: probe 25 μM (Ac-IEPD-AMC 50 μM), HPLC-UV.

Sequence of human granzyme B (human) (P10144 21-247): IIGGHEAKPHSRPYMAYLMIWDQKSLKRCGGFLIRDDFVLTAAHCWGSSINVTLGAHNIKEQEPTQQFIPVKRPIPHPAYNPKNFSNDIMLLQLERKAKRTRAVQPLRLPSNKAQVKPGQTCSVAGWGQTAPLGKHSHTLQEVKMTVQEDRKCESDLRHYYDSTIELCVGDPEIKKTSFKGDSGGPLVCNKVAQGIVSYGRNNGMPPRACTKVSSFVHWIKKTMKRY
T1 sequence (P10144 21-247): as above

For Ac-IEPD-{AMC}, the LoD in assay [1] is recorded as 25 nM. In addition, the HPLC conversion rate in assay [2] (2h-20 nM hGzmB, Data 1) is listed as 0.5%; in assay [2] (2h-20 nM hGzmB, Data 2) it was 0.5%; in assay [2] (2h-20 nM hGzmB, Data 3) it was 0.5%; in assay [2] (2h-50 nM hGzmB, Data 1), 2.5%; in assay [2] (2h-50 nM hGzmB, Data 2) it was 2%; in assay [2] (2h-50 nM hGzmB, Data 3) it was 2.5%. In addition, the HPLC conversion rate in assay [2] (2h-100 nM hGzmB, Data 1) stood at 7.5%; in assay [2] (2h-100 nM hGzmB, Data 2), 5%; in assay [2] (2h-100 nM hGzmB, Data 3), 6.5%; in assay [2] (6h-20 nM hGzmB, Data 1) it was 0.5%; in assay [2] (6h-20 nM hGzmB, Data 2) it was 0.5%; in assay [2] (6h-20 nM hGzmB, Data 3), 0.75%. Further, the HPLC conversion rate turned out to be 3% in assay [2] (6h-50 nM hGzmB, Data 1); 2% in assay [2] (6h-50 nM hGzmB, Data 2); 2% in assay [2] (6h-50 nM hGzmB, Data 3); 8.5% in assay [2] (6h-100 nM hGzmB, Data 1); 7% in assay [2] (6h-100 nM hGzmB, Data 2); 9% in assay [2] (6h-100 nM hGzmB, Data 3). For the same molecule, the HPLC conversion rate in assay [2] (24h-20 nM hGzmB, Data 1) was determined as 1.5%; in assay [2] (24h-20 nM hGzmB, Data 2) it was 1%; in assay [2] (24h-20 nM hGzmB, Data 3), 1.5%; in assay [2] (24h-50 nM hGzmB, Data 1) it was 4%; in assay [2] (24h-50 nM hGzmB, Data 2), 2.5%; in assay [2] (24h-50 nM hGzmB, Data 3) it was 3.5%. Also, the HPLC conversion rate in assay [2] (24h-100 nM hGzmB, Data 1) is 13%; in assay [2] (24h-100 nM hGzmB, Data 2) it was 9%; in assay [2] (24h-100 nM hGzmB, Data 3), 12.5%. Moreover, in assay [2] (setting [8]), the “HPLC conversion (20 nM hGzmB, 2 h)” value is listed as below 1%. Further, the “HPLC conversion (100 nM hGzmB, 24 h)” value in assay [2] (setting [8]) was determined as 10%. The Kcat/KM in assay [3] is 3300 M⁻¹ s⁻¹. The Km in assay [3] is 160 µM. Moreover, the kcat in assay [3] was 0.5 s⁻¹.

For the molecule {BODIPY(FL)}-IEPDSG-{Dabcyl′} [hexapeptide H2], in assay [4], the conversion (cleavage) after 2 h with 20 nM hGzmB is 80%.

For the molecule {BODIPY(FL)}-IEPDAL-{Dabcyl′} [probe H5], in assay [5], the KM of cleavage by hGzmB (20 nM), Michaelis-Menten fit was 9.6 µM; the Kcat of cleavage by hGzmB (20 nM), Michaelis-Menten fit came out at 117 s⁻¹; the Kcat/KM of cleavage by hGzmB (20 nM), Michaelis-Menten fit was 1.2e+07 M⁻¹ s⁻¹. For the same molecule, in assay [6], the signal-to-background ratio of fluorescence emission (peptide 25 μM, hGzmB 20 nM) worked out at 153 fold and the t50: time to reach 50-fold fluorescence increase (peptide 25 μM, hGzmB 20 nM) was determined as 7 min.

Regarding {BODIPY(FL)}-IEPDRL-{Dabcyl′} [hexapeptide H7], the conversion (cleavage) by hGzmB in assay [4] turned out to be 60%.

For {BODIPY(FL)}-IEPDWL-{Dabcyl′} [peptide H4], the conversion (cleavage) by hGzmB in assay [4] was 82%.

As to {BODIPY(FL)}-IEPD-{Ethylenediamine-Dabcyl′} [tetrapeptide T1], in assay [5], the KM of cleavage by GzmB amounted to 30.8 µM, the Kcat of cleavage by GzmB came to 2.3 s⁻¹ and the Kcat/KM of cleavage by GzmB was found to be 59000 M⁻¹ s⁻¹. The same molecule came in with an enzymatic cleavage of T1 by hGzmB (20 nM for 2 h: <5%; 100 nM for 24 h: 14%) in assay [7] of 14%.

B1: Ac-IEPD-AMC (peptide)
peptide: Ac-IEPD-{AMC}
SMILES: CC[C@H](C)[C@H](NC(C)=O)C(=O)N[C@@H](CCC(=O)O)C(=O)N1CCC[C@H]1C(=O)N[C@@H](CC(=O)O)C(=O)Nc1ccc2c(C)cc(=O)oc2c1
The molecule B1 displayed an enzymatic cleavage of Ac-IEPD-AMC by hGzmB (20 nM for 2 h: <1%; 100 nM for 24 h: 10%) in assay [7] of 10%.

{BODIPY(FL)}-IEPDAG-{Dabcyl′} [hexapeptide H1] yielded a conversion (cleavage) after 2 h with 20 nM hGzmB in assay [4] of 75%.

With {BODIPY(FL)}-IEPDWR-{Dabcyl′} [hexapeptide H6], the conversion (cleavage) by hGzmB in assay [4] was found to be 40%. In addition, the signal-to-background ratio of fluorescence emission (peptide 25 μM, hGzmB 20 nM) in assay [6] is 12 fold.

For the molecule {BODIPY(FL)}-IEPDSL-{Dabcyl′} [peptide H3], the conversion (cleavage) by hGzmB in assay [4] stood at 80%.
